Laboratory results: US7521560B2, “2-substituted quinoline compounds and their uses” (Rigel Pharmaceuticals, Inc., priority 2004, dated 2009)
Where two headings read alike, the source gives them in different places.

What was measured:
[1] = test system: cultured human mast cells (CHMC); test: CHMC low cell density IgE activation: tryptase release assay; format: cell-based; conditions: for IC50: Homo sapiens, Mast cell, anti-IgE-induced tryptase release, low density CHMC; for activity in "prodrug" form: referring to TABLE 1
Experimental: Inhibition of degranulation was measured at low density (and could also be measures at high cell density) by quantifying the release of the granule specific factor tryptase. Tryptase was quantified using a fluorogenic substrates as described in its respective examples. Histamine, TNFα, IL-6, IL-13 and LTC4 can be quantified, if desired, using the following commercial ELISA kits: histamine (Immunotech #2015, Beckman Coulter), TNFα (Biosource #KHC3011), IL-6 (Biosource #KMC0061), IL-13 (Biosource #KHC0132) and LTC4 (Cayman Chemical #520211). The protocols for various assays are provided below.
A second phase is performed to convert the expanded CD34-negative progenitor cells into differentiated mucosal mast cells. These mucosal cultured human mast cells (“CHMC”) are derived from CD34+ cells isolated from umbilical cord blood and treated to form a proliferated population of CD34-negative progenitor cells, as described above. To produce the CD34-negative progenitor cells, the resuspension cycle for the culture was the same as that described above, except that the culture was seeded at a density of 425,000 cells/mL and 15% additional media was added on about day four or five without performing a cell count. Also, the cytokine composition of the medium was modified such that it contained SCF (200 ng/mL) and recombinant human IL-6 (200 ng/mL; Peprotech, Catalog No. 200-06 reconstituted to 100 ug/mL in sterile 10 mM acetic acid) (“CM/SCF/IL-6 medium”).
To duplicate 96-well U-bottom plates (Costar 3799) add 65 ul of compound dilutions or control samples that have been prepared in MT [137 mM NaCl, 2.7 mM KCl, 1.8 mM CaCl2, 1.0 mM MgCl2, 5.6 mM Glucose, 20 mM Hepes (pH 7.4), 0.1% Bovine Serum Albumin, (Sigma A4503)] containing 2% MeOH and 1% DMSO. Pellet CHMC cells (980 rpm, 10 min) and resuspend in pre-warmed MT. Add 65 ul of cells to each 96-well plate. Depending on the degranulation activity for each particular CHMC donor, load 1000-1500 cells/well. Mix four times followed by a 1 hr incubation at 37° C. During the 1 hr incubation, prepare 6× anti-IgE solution [rabbit anti-human IgE (1 mg/ml, Bethyl Laboratories A80-109A) diluted 1:167 in MT buffer]. Stimulate cells by adding 25 ul of 6× anti-IgE solution to the appropriate plates. Add 25 ul MT to un-stimulated control wells. Mix twice following addition of the anti-IgE. Incubate at 37° C. for 30 minutes. During the 30 minute incubation, dilute the 20 mM tryptase substrate stock solution [(Z-Ala-Lys-Arg-AMC.2TFA; Enzyme Systems Products, #AMC-246)] 1:2000 in tryptase assay buffer [0.1 M Hepes (pH 7.5), 10% w/v Glycerol, 10 uM Heparin (Sigma H-4898) 0.01% NaN3]. Spin plates at 1000 rpm for 10 min to pellet cells. Transfer 25 ul of supernatant to a 96-well black bottom plate and add 100 ul of freshly diluted tryptase substrate solution to each well. Incubate plates at room temperature for 30 min. Read the […] of the plates at 355 nm/460 nm on a spectrophotometric plate reader.
The results of low density CHMC assays for release of tryptase (Section 6.2.2) are provided for examplary quinoline compounds in TABLE 1, supra. In TABLE 1, a value of “+” indicates an IC50 of 20 μM or less; a value of “++” indicates an IC50 of 10 μM or less; and a value of “+++” indicates an IIC50 of 5 μM or less.

[2] = test system: passive cutaneous anaphylaxis (PCA) response; conditions: i.p., 30 minutes pretreatment time
Experimental: The in vivo efficacy of the quinoline compounds towards allergies can be evaluated in the mouse model of passive cutaneous anaphylaxis (PCA). This model provides a direct measure of IgE-induced degranulation of tissue mast cells. In this model, IgE primed animals are exposed to an allergen challenge and the change in permeability of dermal vasculature that results from histamine release from mast cells is measured by change in the amount of dye leakage into surrounding tissue. Inhibition of mediator release by compounds that modulate mast cell degranulation is easily measured by extracting the dye from the tissue.
In the PCA assay mice are passively sensitized by intradermal injection with anti-dinitrophenol (DNP) IgE antibodies (Day −1). At predetermined times (5-60 minutes prior to challenge), animals are treated with the test agent (Day 0). The modulatory effect of the agent on cutaneous mast cell degranulation is measured following intravenous injection of DNP conjugated to human serum albumin (HSA-DNP), together with Evans blue dye. The resulting cross-linking of the IgE receptor and subsequent mast cell degranulation-induced increase in vascular permeability is determined by measuring the amount of dye extravasation into the tissue. Dye is extracted from the tissue by formamide, and the absorbance of this extract is read at 620 nm. […]

| IC50 [1] [µM] | SMILES | other results |
| --- | --- | --- |
| ≤ 5 | Clc1ccc2nc(Nc3cc(-c4ccccc4)n[nH]3)ccc2c1 [Compound 1, 6-chloro-2-(3-phenyl-1H-pyrazol-5-ylamino)quinoline] | – |
| ≤ 5 | Clc1cccc2ccc(Nc3n[nH]c(-c4ccccc4)c3Br)nc12 [Compound 2, 2-(4-bromo-5-phenyl-1H-pyrazol-3-ylamino)-8-chloroquinoline] | – |
| ≤ 5 | Clc1ccc2nc(Nc3n[nH]c(-c4ccccc4)c3Br)ccc2c1 [Compound 3, 2-(4-bromo-5-phenyl-1H-pyrazol-3-ylamino)-6-chloroquinoline] | – |
| ≤ 5 | NC(=O)c1[nH]cnc1Nc1ccc2cc(Cl)ccc2n1 [Compound 4, 2-(5-aminocarbonyl-1H-imidazol-4-ylamino)-6-chloroquinoline] | – |
| ≤ 5 | NC(=O)c1[nH]cnc1Nc1ccc2cccc(Cl)c2n1 [Compound 5, 2-(5-aminocarbonyl-1H-imidazol-4-ylamino)-8-chloroquinoline] | – |
| ≤ 5 | NC(=O)c1c[nH]nc1Nc1ccc2cccc(Cl)c2n1 [Compound 6, 2-(4-aminocarbonyl-1H-pyrazol-3-ylamino)-8-chloroquinoline] | – |
| ≤ 5 | Clc1cccc2ccc(Nc3cc(-c4ccccc4)n[nH]3)nc12 [Compound 7, 8-chloro-2-(3-phenyl-1H-pyrazol-5-ylamino)quinoline] | – |
| ≤ 5 | Clc1cccc2ccc(Nc3cc(-c4cccs4)n[nH]3)nc12 [Compound 8, 8-chloro-2-(3-thiophen-2-yl-1H-pyrazol-5-ylamino)quinoline] | – |
| ≤ 5 | Clc1ccc2nc(Nc3cc(-c4cccs4)n[nH]3)ccc2c1 [Compound 9, 6-chloro-2-(3-thiophen-2-yl-1H-pyrazol-5-ylamino)quinoline] | – |
| ≤ 5 | COc1ccc(-c2cc(Nc3ccc4cccc(Cl)c4n3)n[nH]2)cc1 [Compound 10, 8-chloro-2-[5-(4-methoxyphenyl)-1H-pyrazol-3-ylamino]quinoline] | – |
| ≤ 5 | COc1ccc(-c2cc(Nc3ccc4cc(Cl)ccc4n3)n[nH]2)cc1 [Compound 11, 6-chloro-2-[5-(4-methoxyphenyl)-1H-pyrazol-3-ylamino]quinoline] | – |
| ≤ 5 | Cc1cc(Nc2ccc3cccc(Cl)c3n2)n[nH]1 [Compound 12, 8-chloro-2-(5-methyl-1H-pyrazol-3-ylamino)quinoline] | – |
| ≤ 10 | CC(C)(C)c1cc(Nc2ccc3cccc(Cl)c3n2)n[nH]1 [Compound 13, 2-(5-tert-butyl-1H-pyrazol-3-ylamino)-8-chloroquinoline] | – |
| ≤ 10 | Cc1cc(Nc2nc[nH]c2C(N)=O)nc2ccccc12 [Compound 15, 2-(5-aminocarbonyl-1H-imidazol-4-ylamino)-4-methylquinoline] | – |
| ≤ 10 | NC(=O)c1c[nH]nc1Nc1ccc2cc(Cl)ccc2n1 [Compound 16, 2-(4-aminocarbonyl-1H-pyrazol-3-ylamino)-6-chloroquinoline] | – |
| ≤ 10 | CCOC(=O)c1c[nH]nc1Nc1ccc2cccc(Cl)c2n1 [Compound 17, 8-chloro-2-(4-ethoxycarbonyl-1H-pyrazol-3-ylamino)quinoline] | activity in "prodrug" form [1]: active |
| ≤ 10 | CNC(=O)c1cc(Nc2nc[nH]c2C(N)=O)nc2ccccc12 [Compound 18, 2-(5-aminocarbonyl-1H-imidazol-4-ylamino)-4-methylaminocarbonylquinoline] | activity in "prodrug" form [1]: active |
| ≤ 20 | Clc1cccc2ccc(Nc3cc[nH]n3)nc12 [Compound 19, 8-chloro-2-(1H-pyrazol-3-ylamino)quinoline] | – |
| ≤ 20 | N#Cc1c[nH]nc1Nc1ccc2cccc(Cl)c2n1 [Compound 20, 8-chloro-2-(4-cyano-1H-pyrazol-3-ylamino)quinoline] | – |
| > 20 | Oc1cccc2ccc(Nc3nc[nH]c3Cl)nc12 [Compound 21, 2-(5-chloro-1H-imidazol-4-ylamino)-8-hydroxyquinoline] | IC50 ([1]; stated in text): > 20 µM |
| > 20 | NC(=O)c1[nH]cnc1Nc1cc(C(=O)N2CCOCC2)c2ccccc2n1 [Compound 22, 2-(5-aminocarbonyl-1H-imidazol-4-ylamino)-4-(4-morpholinocarbonyl)quinoline] | IC50 ([1]; stated in text): > 20 µM |
| – | CN1CCC(=C2c3ccccc3C=Cc3ccccc32)CC1 [Cyproheptadine, cyproheptadine] | inhibition of the PCA response ([2]; 8 mg/kg, n=23 experiments): 61%+/−4 |
| – | CN(C)CCOC(c1ccccc1)c1ccccc1 [diphenhydramine] | inhibition of the PCA response ([2]; highest dose, 50 mg/kg): up to 86% |
